# Assay results published in patent publication US20060094676A1, “Compositions and methods for treating cancer using compositions comprising an inhibitor of endothelin receptor activity” (priority 2004, published 2006).
# What was measured:
# HIF-1α = experiment: Real-time RT-PCR of HIF-1α transcripts; format: cell-based, human; conditions: melanoma cell lines treated with BQ788; amplitude correlates with VEGF changes
# Method: Equal amounts of RNA from cells that were treated with BQ788 for 3 days were subjected to real-time RT-PCR analysis for the detection VEGF (A), HIF-1α (B) and Gravin (C) transcripts. Differences in expression levels are shown as x fold change and are statistically significant (p<0.05) unless a column in marked as non significant (N.S.). Sections of two representative tumors derived from a human melanoma cell line grown in nude mice and injected either with vehicle (D) or BQ788 (E) were stained with anti CD-31 to highlight blood vessels (brown staining, Lahav et al, 1999).
# RNA was prepared from the different cell lines in different culture conditions using SV total RNA isolation kit (Promega) according to the manufacturer's protocol. For each sample RNA concentration was determined using the total RNA nano procedure of an Agilent bioanalyzer. A stock of SK-MEL-28 RNA aliquots was prepared containing 10, 20, 50, 100, 200, 500 and 1000 ng/12 μl for use as a standard curve and kept in −80° C. For the experimental unknown samples, a stock of 100 ng/12 μl RNA aliquots from each cell line and condition was prepared and stored at −80° C. […] A standard curve of Ct versus RNA quantity was established and accordingly the Ct in the unknown samples was correlated to quantity of transcript. […]
# caspase 3 = experiment: Western blot for caspase 3 activation; format: cell-based; conditions: BQ788-treated melanoma cells; data not shown
# Text: Down-regulation of BCL2-A1 results in caspase 9 activation but not caspase 3 or 8 cleavage (Duriez, et al., A1 functions at the mitochondria to delay endothelial apoptosis in response to tumor necrosis factor, J. Biol. Chem., 275:18099-18107 (2000); Pagliari, et al., Macrophages require constitutive NF-kappaB activation to maintain A1 expression and mitochondrial homeostasis, Mol. Cell Biol., 20:8855-8865 (2000)). […] Whether caspase 6 activation occurs via reduction in BCL-2A1 expression or by alternative pathways remains to be determined.
smiles,measurement,setting,value
"CCCC[C@@H](NC(=O)[C@@H](Cc1cn(C(=O)OC)c2ccccc12)NC(=O)[C@H](CC(C)(C)C)NC(=O)N1[C@H](C)CCC[C@@H]1C)C(=O)O [BQ788, N-cis-2,6-dimethylpiperidinocarbonyl-L-γ-methylleucyl-D-1-methoxycarbonyltrptophanyl-D-norleucine]",HIF-1α RNA expression levels,HIF-1α,small but significant changes
same,caspase 3 activation,caspase 3,did not reveal caspase 3 activation
